Laboratory results from the NIST ThermoML archive (doi:10.1016/j.jct.2012.02.034).
± gives the expanded uncertainty stated by the source.

Experiment: excess molar enthalpy (molar enthalpy of mixing); xn = mol fraction of the nth substance listed
Settings: 313.15 K, Fluid (supercritical or subcritical phases), Flow calorimetry

SMILES: CCOC(C)=O [ethyl acetate] + O=C=O
- excess molar enthalpy (9000 kPa, x2 = 0.087): -0.108 ± 0.00598 kcal/mol
- excess molar enthalpy (9000 kPa, x2 = 0.172): -0.226 ± 0.00717 kcal/mol
- excess molar enthalpy (9000 kPa, x2 = 0.256): -0.325 ± 0.00837 kcal/mol
- excess molar enthalpy (9000 kPa, x2 = 0.381): -0.46 ± 0.0108 kcal/mol
- excess molar enthalpy (9000 kPa, x2 = 0.462): -0.525 ± 0.0122 kcal/mol
- excess molar enthalpy (9000 kPa, x2 = 0.542): -0.603 ± 0.0136 kcal/mol
- excess molar enthalpy (9000 kPa, x2 = 0.66): -0.684 ± 0.0155 kcal/mol
- excess molar enthalpy (9000 kPa, x2 = 0.737): -0.727 ± 0.0163 kcal/mol
- excess molar enthalpy (9000 kPa, x2 = 0.814): -0.713 ± 0.0163 kcal/mol
- excess molar enthalpy (9000 kPa, x2 = 0.889): -0.636 ± 0.0155 kcal/mol
- excess molar enthalpy (9000 kPa, x2 = 0.926): -0.541 ± 0.0184 kcal/mol
- excess molar enthalpy (9000 kPa, x2 = 0.963): -0.379 ± 0.0196 kcal/mol
- excess molar enthalpy (12000 kPa, x2 = 0.123): -0.1 ± 0.00359 kcal/mol
- excess molar enthalpy (12000 kPa, x2 = 0.235): -0.185 ± 0.00502 kcal/mol
- excess molar enthalpy (12000 kPa, x2 = 0.338): -0.243 ± 0.00598 kcal/mol
- excess molar enthalpy (12000 kPa, x2 = 0.432): -0.279 ± 0.00669 kcal/mol
- excess molar enthalpy (12000 kPa, x2 = 0.519): -0.308 ± 0.00717 kcal/mol
- excess molar enthalpy (12000 kPa, x2 = 0.599): -0.327 ± 0.00717 kcal/mol
- excess molar enthalpy (12000 kPa, x2 = 0.673): -0.335 ± 0.00741 kcal/mol
- excess molar enthalpy (12000 kPa, x2 = 0.742): -0.322 ± 0.00789 kcal/mol
- excess molar enthalpy (12000 kPa, x2 = 0.806): -0.302 ± 0.00717 kcal/mol
- excess molar enthalpy (12000 kPa, x2 = 0.866): -0.263 ± 0.00717 kcal/mol
- excess molar enthalpy (12000 kPa, x2 = 0.949): -0.16 ± 0.00574 kcal/mol
- excess molar enthalpy (12000 kPa, x2 = 0.975): -0.0887 ± 0.0158 kcal/mol
- excess molar enthalpy (15000 kPa, x2 = 0.132): -0.0865 ± 0.00263 kcal/mol
- excess molar enthalpy (15000 kPa, x2 = 0.25): -0.151 ± 0.00382 kcal/mol
- excess molar enthalpy (15000 kPa, x2 = 0.356): -0.208 ± 0.00478 kcal/mol
- excess molar enthalpy (15000 kPa, x2 = 0.452): -0.242 ± 0.0055 kcal/mol
- excess molar enthalpy (15000 kPa, x2 = 0.539): -0.274 ± 0.00598 kcal/mol
- excess molar enthalpy (15000 kPa, x2 = 0.618): -0.285 ± 0.00621 kcal/mol
- excess molar enthalpy (15000 kPa, x2 = 0.724): -0.275 ± 0.00598 kcal/mol
- excess molar enthalpy (15000 kPa, x2 = 0.788): -0.245 ± 0.0055 kcal/mol
- excess molar enthalpy (15000 kPa, x2 = 0.818): -0.227 ± 0.00574 kcal/mol
- excess molar enthalpy (15000 kPa, x2 = 0.875): -0.182 ± 0.0055 kcal/mol
- excess molar enthalpy (15000 kPa, x2 = 0.927): -0.124 ± 0.00502 kcal/mol
- excess molar enthalpy (15000 kPa, x2 = 0.953): -0.0896 ± 0.00335 kcal/mol
- excess molar enthalpy (18000 kPa, x2 = 0.071): -0.0617 ± 0.00287 kcal/mol
- excess molar enthalpy (18000 kPa, x2 = 0.137): -0.101 ± 0.00311 kcal/mol
- excess molar enthalpy (18000 kPa, x2 = 0.259): -0.166 ± 0.00406 kcal/mol
- excess molar enthalpy (18000 kPa, x2 = 0.367): -0.201 ± 0.00454 kcal/mol
- excess molar enthalpy (18000 kPa, x2 = 0.463): -0.224 ± 0.00478 kcal/mol
- excess molar enthalpy (18000 kPa, x2 = 0.55): -0.237 ± 0.00502 kcal/mol
- excess molar enthalpy (18000 kPa, x2 = 0.629): -0.24 ± 0.00526 kcal/mol
- excess molar enthalpy (18000 kPa, x2 = 0.7): -0.225 ± 0.00502 kcal/mol
- excess molar enthalpy (18000 kPa, x2 = 0.825): -0.18 ± 0.0043 kcal/mol
- excess molar enthalpy (18000 kPa, x2 = 0.88): -0.145 ± 0.0043 kcal/mol
- excess molar enthalpy (18000 kPa, x2 = 0.931): -0.0989 ± 0.0043 kcal/mol
- excess molar enthalpy (18000 kPa, x2 = 0.955): -0.0746 ± 0.0043 kcal/mol
